In data set [1] the test system is NR3C3 (PR). To be noted: cited from earlier work; for IC50: (lit.), ref Supplementary Table 1, read-out: Potency [nM] IC50, NR3C3 (PR).
Data set [2] concerns NR3C2 (MR). The note with it: rem. act.; cited from earlier work.
In data set [3] the test system is NR3C4 (AR). The note with it: cited from earlier work.
In data set [4] the target is T1, NR1B1 (RARα) (Homo sapiens, UniProt P10276).
T1 construct: expressed in transfected cells; host or cells: HEK293T
Nature of the data set: Gal4 hybrid reporter gene assay RARα. It is filed as cell-based. More on the design: Activity on NR targets outside NR3 family [mean log10(fold reporter gene activity)] NR1B1 (RARα): concentration or dose not given beside the values. The protocol: (§1) Reference ligands are listed in the methods section.
Five hours after transfection, the cells were incubated with the NR3 CG compound candidates at the recommended concentrations by changing the medium to Opti-MEM supplemented with penicillin (100 µ/mL) and streptomycin (100 µg/mL) additionally containing 0.1% DMSO and the respective test compound or 0.1% DMSO alone as untreated control. Firefly (reporter) and renilla (control) luminescence were measured after 14–16 h incubation using the Dual-Glo® Luciferase Assay System (Promega, Fitchburg, Wisconsin, USA; #E2980) according to manufacturer’s protocol on a Tecan Spark® 10M multimode microplate reader (Tecan Group AG, Männedorf, Switzerland). To obtain relative light units (RLU) firefly luminescence was divided by renilla luminescence and multiplied by 1000. Fold activation was obtained by dividing the mean RLU of a test sample by the mean RLU of the DMSO (0.1%) control. Experiments were performed in singlets in at least three biologically independent repeats.
Supplementary Figure 1. […] Compounds are labeled according
Supplementary Figure 2. […] Compounds are
representing the NR1, NR2, NR4 and NR5 families.
scanning fluorimetry (DSF).
a concentration of 20 µM.
For orientation: A reporter such as luciferase makes a cellular process visible.

Data set [5] deals with T2, NR4A1 (Nur77) (Homo sapiens, UniProt P22736).
T2 construct: expressed in transfected cells; host or cells: HEK293T
T2 sequence (P22736 360-595 limits assumed): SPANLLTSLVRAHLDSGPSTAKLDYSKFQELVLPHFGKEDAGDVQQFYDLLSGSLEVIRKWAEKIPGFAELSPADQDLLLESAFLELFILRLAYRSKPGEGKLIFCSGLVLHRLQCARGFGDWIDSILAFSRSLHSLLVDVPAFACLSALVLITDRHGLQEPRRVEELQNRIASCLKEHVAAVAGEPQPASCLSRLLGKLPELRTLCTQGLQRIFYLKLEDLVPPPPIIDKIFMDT
The data set is described as follows: Gal4 hybrid reporter gene assay Nur77. It is filed as cell-based. The note with it: 10 µM, n=3. The protocol:
as §1
(§2) HEK293T cells (ATCC, Manassas, Virgina, USA; #CRL-3216) were cultured to a maximal confluence of 70–80% in DMEM, high glucose, supplemented with 10% FCS, sodium pyruvate (1 mM), penicillin (100 U/mL), and streptomycin (100 μg/mL) at 37 °C and 5% CO2 (v/v), and seeded in clear 96-well plates (4 × 10^4 cells per well). After 20–24 h, medium was changed to Opti-MEM without supplements and the cells were transiently transfected using Lipofectamine™ LTX/Plus™ Reagents (Invitrogen, Carlsbad, California, USA; #15338100) according to the manufacturer’s protocol with pFR-Luc (reporter gene; Stratagene, Agilent Technologies, Santa Clara, California, USA; #219050), pRL-SV40 (control gene for normalization of transfection efficiency and cell growth; Promega, Fitchburg, Wisconsin, USA; #E2231) and one pFA-CMV-hNR-LBD clone coding for the hinge region and ligand binding domain (LBD) of the human NR of interest. […] Firefly (reporter) and renilla (control) luminescence were measured after 14–16 h incubation using the Dual-Glo® Luciferase Assay System (Promega, Fitchburg, Wisconsin, USA; #E2980) according to manufacturer’s protocol on a Tecan Spark® 10M multimode microplate reader (Tecan Group AG, Männedorf, Switzerland). To obtain relative light units (RLU) firefly luminescence was divided by renilla luminescence and multiplied by 1000. […]

Data set [6] has as its system NR5A2 (LRH1). The data set is described as follows: Gal4 hybrid reporter gene assay LRH1. To be noted: 1 µM; n=3; vs. DMSO ctrl. Type of data set: cell-based, human. On the procedure: as §1, §2
The test system of data set [7] is NR3A2 (ERβ). To be noted: (lit.); ref Supplementary Table 1; read-out: Potency [nM] IC50, NR3A2 (ERβ); cited from earlier work.
In data set [8] the target is T3, NR1I2 (PXR) (Homo sapiens, UniProt O75469).
T3 construct: expressed in transfected cells; host or cells: HEK293T
T3 sequence (O75469 146-433 limits assumed): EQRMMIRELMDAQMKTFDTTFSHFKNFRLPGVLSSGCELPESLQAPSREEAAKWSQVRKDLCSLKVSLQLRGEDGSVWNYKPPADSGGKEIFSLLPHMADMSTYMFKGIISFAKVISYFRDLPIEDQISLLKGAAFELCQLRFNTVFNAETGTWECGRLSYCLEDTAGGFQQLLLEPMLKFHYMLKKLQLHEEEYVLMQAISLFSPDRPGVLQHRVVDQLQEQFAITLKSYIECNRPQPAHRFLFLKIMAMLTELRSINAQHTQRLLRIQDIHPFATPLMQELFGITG
Nature of the data set: Gal4 hybrid reporter gene assay PXR. It is filed as cell-based. The note with it: 1 µM, n=3. The protocol: as §1, §2

Data set [9] deals with NR3B3 (ERRγ). The note with it: (lit.); ref Supplementary Table 1; read-out: Potency [nM] EC50, NR3B3 (ERRγ); cited from earlier work.

Consider eight molecules from publication PMC11790914, “Chemogenomics for steroid hormone receptors (NR3)” (Communications Chemistry, 2025).

T1 sequence (P10276 183-417 limits assumed): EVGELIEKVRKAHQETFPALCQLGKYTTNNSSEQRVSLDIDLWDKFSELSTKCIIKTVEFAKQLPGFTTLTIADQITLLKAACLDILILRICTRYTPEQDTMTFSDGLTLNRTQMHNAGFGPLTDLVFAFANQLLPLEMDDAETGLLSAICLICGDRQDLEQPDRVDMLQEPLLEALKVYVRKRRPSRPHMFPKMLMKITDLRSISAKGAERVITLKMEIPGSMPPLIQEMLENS

Take `CC#C[C@]1(O)CC[C@H]2[C@@H]3CCC4=CC(=O)CCC4=C3[C@@H](c3ccc(N(C)C)cc3)C[C@@]21C` [Mifepristone]: the IC50 – broadly, the concentration that inhibits the measured activity by half – in [1] is […]; in [3] (read-out: Potency [nM] IC50, NR3C4 (AR), (lit.), ref Supplementary Table 1) it was 5 ± 2 nM. Also, the “rel. activity from literature, NR3C3 (PR): % rem. act. of PGN” value in data set [1] (rem. act. of PGN (progesterone)) is […]. The “rel. activity from literature, NR3C2 (MR): % rem. act.” value in data set [2] is reported as […]. In addition, in data set [3], the “rel. activity from literature, NR3C4 (AR): % rem. act. of DHT” value is 25 ± 2%.
For `C[C@@H]1Cc2c([nH]c3ccccc23)[C@@H](c2c(F)cc(/C=C/C(=O)O)cc2F)N1CC(C)(C)F` [AZD9496], in data set [4], the “Activity on NR targets outside NR3 family [mean log10(fold reporter gene activity)] NR1B1 (RARα)” value is reported as -0.43 log10(fold reporter gene activity).
For `COc1ccc(-c2coc3cc(O)cc(O)c3c2=O)cc1` [Biochanin A], the “Activity on NR4A1 (Nurr77)” value in [5] is given as 0.34 mean log10(fold reporter gene activity).
Consider `COc1cc(/C=C(\C#N)C(=O)Nc2nnc(C(F)(F)F)s2)ccc1OCc1ccc(C(F)(F)F)cc1C(F)(F)F` [XCT790], for which the “Activity on NR targets outside NR3 family [mean log10(fold reporter gene activity)] NR5A2 (LRH1)” value in data set [6] is reported as 0.20 log10(fold reporter gene activity).
With `C/C=C1\C(=O)C[C@H]2[C@@H]3CCC4=CC(=O)CC[C@]4(C)[C@H]3CC[C@]12C` [Z-Guggulsterone], the IC50 in [1] is 740 ± 220 nM. Also, in [3] (read-out: Potency [nM] EC50, NR3C4 (AR), (lit.), ref Supplementary Table 1), the EC50 (usually the concentration that produces a half-maximal response) was 660 ± 240 nM.
Turning to `CC/C(=C(\c1ccc(O)cc1)c1ccc(OCCN(C)C)cc1)c1ccccc1` [(Z)-4-Hydroxytamoxifen], the IC50 in data set [7] was 1 ± 1 nM.
Consider `CC/C(=C(/c1ccc(/C=C/C(=O)O)cc1)c1ccc2[nH]ncc2c1)c1ccc(F)cc1Cl` [ARN810], for which the IC50 in data set [7] is 9 nM. Moreover, the “Activity on NR1B1 (RARα)” value in data set [4] (1 µM, n=3) is -0.97 mean log10(fold reporter gene activity). Besides, the “Activity on NR1I2 (PXR)” value in data set [8] was -0.68 mean log10(fold reporter gene activity).
As to `CCN(CC)c1ccc(/C=N/NC(=O)c2ccc(O)cc2)cc1` [DY131], the EC50 in data set [9] is 130 nM.
